Consider one compound from patent US11040976B2, “Substrate selective inhibitors of insulin-degrading enzyme (IDE) and uses thereof” (President and Fellows of Harvard College, priority 2015, dated 2021).

For experiment [1], the target named is T1, IDE, substrate amylin (fp) peptide (Homo sapiens, UniProt P14735).
T1 sequence (P14735 1-1019): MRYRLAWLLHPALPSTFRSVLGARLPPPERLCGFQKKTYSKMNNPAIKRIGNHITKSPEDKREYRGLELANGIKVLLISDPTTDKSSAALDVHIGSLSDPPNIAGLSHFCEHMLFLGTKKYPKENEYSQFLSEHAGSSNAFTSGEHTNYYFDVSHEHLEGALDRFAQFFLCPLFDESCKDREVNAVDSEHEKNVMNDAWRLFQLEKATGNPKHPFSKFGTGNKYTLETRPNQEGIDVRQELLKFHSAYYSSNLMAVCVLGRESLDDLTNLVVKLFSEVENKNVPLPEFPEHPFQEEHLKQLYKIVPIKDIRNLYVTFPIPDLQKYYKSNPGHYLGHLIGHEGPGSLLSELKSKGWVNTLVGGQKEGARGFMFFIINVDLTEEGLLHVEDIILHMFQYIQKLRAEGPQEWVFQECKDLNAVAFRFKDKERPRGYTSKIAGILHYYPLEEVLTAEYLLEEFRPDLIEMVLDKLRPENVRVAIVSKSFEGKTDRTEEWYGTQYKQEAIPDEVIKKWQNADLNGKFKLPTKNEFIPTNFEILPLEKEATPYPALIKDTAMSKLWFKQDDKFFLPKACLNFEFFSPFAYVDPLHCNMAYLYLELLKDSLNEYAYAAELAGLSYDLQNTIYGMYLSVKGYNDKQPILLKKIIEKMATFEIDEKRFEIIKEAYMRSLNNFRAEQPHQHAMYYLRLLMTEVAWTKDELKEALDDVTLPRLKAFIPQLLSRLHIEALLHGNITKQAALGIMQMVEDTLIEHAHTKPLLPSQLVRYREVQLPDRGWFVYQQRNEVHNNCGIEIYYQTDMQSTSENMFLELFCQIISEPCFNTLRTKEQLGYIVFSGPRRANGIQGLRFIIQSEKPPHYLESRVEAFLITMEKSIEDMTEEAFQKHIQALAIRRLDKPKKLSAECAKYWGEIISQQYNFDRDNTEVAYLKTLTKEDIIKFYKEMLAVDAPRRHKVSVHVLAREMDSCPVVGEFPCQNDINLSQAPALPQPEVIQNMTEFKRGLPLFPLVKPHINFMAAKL
The experiment is described as follows: IDE concentration dependence profile with fluorogenic amylin analog. The class given is biochemical. The settings on record: FIGS. 11B and 11C. Here is the method:
In order to determine the behavior of the inhibitors with respect to amylin, a concentration dependence profile was measured for IDE in the presence of a specified concentration of inhibitor and a fluorogenic amylin analog. The amylin (fp) peptide sequence was KCNTATCATXRLANFLVHSSNNZGAILSSTNVGSNTY-NH2 (SEQ ID NO: 8). The residue marked as X is Lys-γN-anthrinilamide, and the residue marked as Z is 3-nitro-Tyr.

Experiment [2] deals with T2, IDE (R&D), substrate glucagon (Homo sapiens, UniProt P14735).
T2 construct: recombinant human IDE42-1019 (R&D Systems); purchased R&D
T2 sequence (P14735 42-1019): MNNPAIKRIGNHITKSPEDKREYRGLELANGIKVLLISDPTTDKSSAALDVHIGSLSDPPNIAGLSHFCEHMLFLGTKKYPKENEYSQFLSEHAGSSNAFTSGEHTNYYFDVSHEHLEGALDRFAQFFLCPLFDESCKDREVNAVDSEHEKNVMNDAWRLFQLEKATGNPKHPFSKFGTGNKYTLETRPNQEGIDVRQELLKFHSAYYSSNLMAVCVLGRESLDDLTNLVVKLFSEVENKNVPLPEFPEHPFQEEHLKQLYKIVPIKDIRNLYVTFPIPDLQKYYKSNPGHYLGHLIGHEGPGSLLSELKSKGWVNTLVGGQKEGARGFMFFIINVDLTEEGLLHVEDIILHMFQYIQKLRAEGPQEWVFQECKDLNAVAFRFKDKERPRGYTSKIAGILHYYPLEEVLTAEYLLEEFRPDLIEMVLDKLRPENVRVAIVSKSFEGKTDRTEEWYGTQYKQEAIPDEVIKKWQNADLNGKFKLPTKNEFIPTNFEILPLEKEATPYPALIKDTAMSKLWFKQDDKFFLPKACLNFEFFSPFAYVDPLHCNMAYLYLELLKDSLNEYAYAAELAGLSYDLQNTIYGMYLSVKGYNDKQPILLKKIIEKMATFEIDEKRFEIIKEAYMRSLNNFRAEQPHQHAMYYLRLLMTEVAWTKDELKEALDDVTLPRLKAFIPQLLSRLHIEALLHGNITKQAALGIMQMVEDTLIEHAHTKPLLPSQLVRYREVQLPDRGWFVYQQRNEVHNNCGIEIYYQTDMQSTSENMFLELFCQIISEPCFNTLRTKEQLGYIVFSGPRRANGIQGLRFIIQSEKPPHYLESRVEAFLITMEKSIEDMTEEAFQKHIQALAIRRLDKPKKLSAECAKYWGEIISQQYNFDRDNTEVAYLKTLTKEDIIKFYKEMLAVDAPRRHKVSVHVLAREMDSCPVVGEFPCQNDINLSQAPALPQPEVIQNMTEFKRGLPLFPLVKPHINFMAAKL
The experiment in a line: HTRF assay for IDE-mediated degradation of glucagon. The settings on record: compounds 67 μM, 0° C. for 10 minutes, versus DMSO alone, FIG. 5. The class given is biochemical. As for the experimental part: A solution of 0.05 μg/mL IDE (R&D) in “Diluent #5” (CisBio, 24 μL) was transferred to a 200 μL tube strip, and combined with 1 μL of each inhibitor (10 mM in DMSO, or as a 3-fold dilution series). […] This procedure was optimized to result in ˜75% degradation of glucagon. The reaction was terminated by 1 μL of inhibitor Ii1 (5 μM) and chilled on ice. The remaining glucagon was quantified using 10 μL of the quenched enzymatic reaction using the sensitive-range protocol Homogeneous Time-Resolved FRET Glucagon assay (CisBio® 62GLCPEF, see FIG. 3) in 20 μL total volume according to the manufacturer's instructions (384 well-plate Greiner 784904 non-binding). Fluorescence was measured using a Tecan M1000Pro plate reader (excitation=340 nm, emission=665 and 620 nm, lag time=60 μs) according the assay manufacturer's recommendations. Blank wells and glucagon standard curve were included in the assay.
FIG. 4 compares the determined endpoint for insulin degradation with of glucagon degradation for a DMSO control, 6bK at 10 μM, and exemplary compounds of the invention at concentrations of 67 μM.
The HTRF endpoint assay for insulin and glucagon was performed over a range of concentrations for several potential inhibitors and for 6bK.

For `Cc1cccc(-c2ccc([C@@H]3[C@@H](CO)N4CCCCN(S(=O)(=O)c5ccccc5C)C[C@@H]34)cc2)c1` [compound 297], in experiment [1] (amylin (fp) curve compared with HTRF glucagon curve), the “selectivity for inhibiting degradation of amylin over glucagon” value was “selectivity for inhibiting degradation of amylin over degradation of glucagon”. Also, in experiment [1] (amylin (fp) curve compared with HTRF insulin and glucagon curves), the “selectivity for inhibiting degradation of insulin over amylin and glucagon” value is “selectivity for inhibiting degradation of insulin over degradation of amylin and glucagon”. Further, in experiment [2], the “initial rates of glucagon cleavage” value is “reduced”.
